{
  "source": "patent US20110086834A1",
  "about": "“ALKYNYL ALCOHOLS AS KINASE INHIBITORS” (AMGEN INC., priority 2008, published 2011)",
  "target": "T1, NIK (Homo sapiens, UniProt Q99558)",
  "T1 construct": "Both assays utilize a truncated form of NIK containing only the catalytic domain; made in house; host or cells: baculovirus expression system (insect cells implied)",
  "T1 sequence (Q99558 400-655 limits assumed)": "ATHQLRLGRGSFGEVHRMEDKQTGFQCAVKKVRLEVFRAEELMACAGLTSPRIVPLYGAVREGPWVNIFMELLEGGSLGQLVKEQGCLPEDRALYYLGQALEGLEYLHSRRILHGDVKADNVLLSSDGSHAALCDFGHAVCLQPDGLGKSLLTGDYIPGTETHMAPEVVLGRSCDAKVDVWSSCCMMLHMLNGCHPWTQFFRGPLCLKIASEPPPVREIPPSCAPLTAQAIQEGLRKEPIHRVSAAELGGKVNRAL",
  "test": "homogenous time resolved fluorescence (HTRF) assay for NIK Ki measurement",
  "type": "biochemical",
  "conditions": "truncated NIK (catalytic domain only), autophosphorylation; 10 nM enzyme; 20, 100, 200 or 500 μM ATP; room temperature, 2 hours; read-out: Ki activity in the homogenous time resolved fluorescence (HTRF) assay for NIK",
  "note": "pKi: −log10 of the molar value.",
  "data": [
    {"smiles": "Nc1ncc(OCc2cccnc2)c(-c2c[nH]c3ccc(C#CC4(O)CCCC4)cc23)n1", "note": "[Example 232, 1-((3-(2-Amino-5-(3-pyridinylmethoxy)-4-pyrimidinyl)-1H-indol-5-yl)ethynyl)cyclopentanol]", "values": [
      {"measurement": "pKi", "result": "> 6.00"}
    ]},
    {"smiles": "COCCOc1cnc(N)nc1-c1cn(C)c2ccc(C#CC3(O)CCCC3)cc12", "note": "[Example 233, 1-((3-(2-Amino-5-(2-methoxyethoxy)-4-pyrimidinyl)-1-methyl-1H-indol-5-yl)ethynyl)cyclopentanol]", "values": [
      {"measurement": "pKi", "result": "> 6.00"}
    ]},
    {"smiles": "COCCOc1cnc(N)nc1-c1cn(CCOC)c2ccc(C#CC3(O)CCCC3)cc12", "note": "[Example 234, 1-((3-(2-Amino-5-(2-methoxyethoxy)-4-pyrimidinyl)-1-(2-methoxyethyl)-1H-indol-5-yl)ethynyl)cyclopentanol]", "values": [
      {"measurement": "pKi", "result": "> 6.00"}
    ]},
    {"smiles": "COCCOc1cnc(N)nc1-c1c[nH]c2ccc(C#CC(O)(c3cccc(F)c3)C(F)(F)F)cc12", "note": "(stereo not shown) [Example 236, 4-(3-(2-Amino-5-(2-methoxyethoxy)-4-pyrimidinyl)-1H-indol-5-yl)-1,1,1-trifluoro-2-(3-fluorophenyl)-3-butyn-2-ol]", "values": [
      {"measurement": "pKi", "result": "4.52 to 6.00"}
    ]},
    {"smiles": "COCCOc1cncnc1-c1c[nH]c2ccc(C#CC3(O)CCCC3)cc12", "note": "[Example 237, 1-((3-(5-(2-Methoxyethoxy)-4-pyrimidinyl)-1H-indol-5-yl)ethynyl)cyclopentanol]", "values": [
      {"measurement": "pKi", "result": "> 6.00"}
    ]},
    {"smiles": "Nc1ncc2c(n1)-c1c([nH]c3ccc(C#CC4(O)CCCC4)cc13)CCC2", "note": "[Example 238, 1-((2-Amino-5,6,7,8-tetrahydropyrimido[4′,′:3,4]cyclohepta[1,2-b]indol-11-yl)ethynyl)cyclopentanol]", "values": [
      {"measurement": "pKi", "result": "> 6.00"}
    ]},
    {"smiles": "Nc1ncc2c(n1)-c1c([nH]c3ccc(C#CC4(O)CCCCC4)cc13)CCC2", "note": "[Example 239, 1-((2-Amino-5,6,7,8-tetrahydropyrimido[4′,′:3,4]cyclohepta[1,2-b]indol-11-yl)ethynyl)cyclohexanol]", "values": [
      {"measurement": "pKi", "result": "> 6.00"}
    ]},
    {"smiles": "OC1(C#Cc2ccc3[nH]c4c(c3c2)-c2ncncc2CCC4)CCCC1", "note": "[Example 241, 1-(5,6,7,8-Tetrahydropyrimido[4′,′:3,4]cyclohepta[1,2-b]indol-11-ylethynyl)cyclopentanol]", "values": [
      {"measurement": "pKi", "result": "> 6.00"}
    ]},
    {"smiles": "Cc1ncc2c(n1)-c1c([nH]c3ccc(C#CC(C)(C)O)cc13)CCC2", "note": "[Example 242, 2-Methyl-4-(2-methyl-5,6,7,8-tetrahydropyrimido[4′,′:3,4]cyclohepta[1,2-b]indol-1′-yl)-3-butyn-2-ol]", "values": [
      {"measurement": "pKi", "result": "4.52 to 6.00"}
    ]},
    {"smiles": "Nc1ncc2c(n1)-c1c([nH]c3ccc(C#CC4(O)CCCC4)cc13)C(=O)NC2", "note": "[Example 243, 2-Amino-11-((1-hydroxycyclopentyl)ethynyl)-5,8-dihydropyrimido[4′,′:5,6]azepino[3,4-b]indol-7(6H)-one]", "values": [
      {"measurement": "pKi", "result": "> 6.00"}
    ]},
    {"smiles": "CN1Cc2cnc(N)nc2-c2c(n(C)c3ccc(C#CC4(O)CCCC4)cc23)C1=O", "note": "[Example 244, 2-Amino-1′-((1-hydroxycyclopentyl)ethynyl)-6,8-dimethyl-5,8-dihydropyrimido[4′,5′:5,6]azepino[3,4-b]indol-7(6H)-one]", "values": [
      {"measurement": "pKi", "result": "> 6.00"}
    ]},
    {"smiles": "Cn1c2c(c3cc(C#CC4(O)CCCC4)ccc31)-c1nc(N)ncc1CNC2=O", "note": "[Example 245, 2-Amino-1′-((1-hydroxycyclopentyl)ethynyl)-8-methyl-5,8-dihydropyrimido[4′,5′:5,6]azepino[3,4-b]indol-7(6H)-one]", "values": [
      {"measurement": "pKi", "result": "> 6.00"}
    ]},
    {"smiles": "COCCN1Cc2cnc(N)nc2-c2c(n(C)c3ccc(C#CC4(O)CCCC4)cc23)C1=O", "note": "[Example 246, 2-Amino-1′-((1-hydroxycyclopentyl)ethynyl)-6-(2-methoxyethyl)-8-methyl-5,8-dihydropyrimido[4′,5′:5,6]azepino[3,4-b]indol-7(6H)-one]", "values": [
      {"measurement": "pKi", "result": "> 6.00"}
    ]},
    {"smiles": "Cn1c2c(c3cc(C#CC4(O)CCCC4)ccc31)-c1nc(N)ncc1CN(Cc1ccccn1)C2=O", "note": "[Example 247, 2-Amino-1′-((1-hydroxycyclopentyl)ethynyl)-8-methyl-6-(2-pyridinylmethyl)-5,8-dihydropyrimido[4′,′:5,6]azepino[3,4-b]indol-7(6H)-one]", "values": [
      {"measurement": "pKi", "result": "> 6.00"}
    ]},
    {"smiles": "CC(O)(C#Cc1ccc2c(c1)N(c1nc(N)ncc1Cl)CC21CCCOC1)c1nccs1", "note": "(stereo not shown) [Example 248, 4-(1-(2-Amino-5-chloro-4-pyrimidinyl)-1,2,5′,6′-tetrahydro-4′H-spiro[indole-3,3′-pyran]-6-yl)-2-(1,3-thiazol-2-yl)-3-butyn-2-ol]", "values": [
      {"measurement": "pKi", "result": "> 6.00"}
    ]},
    {"smiles": "Nc1ncc2c(n1)-c1c(nc3ccc(C#CC4(O)CCCC4)cn13)CCC2", "note": "[Example 249, 1-((2-amino-6,7-dihydro-5H-pyrido[1″,2″:1′,2′]imidazo[4′,′:6,7]cyclohepta[1,2-d]pyrimidin-11-yl)ethynyl)cyclopentanol]", "values": [
      {"measurement": "pKi", "result": "> 6.00"}
    ]},
    {"smiles": "CC(C)(O)C#Cc1ccc2nc3c(n2c1)-c1nc(N)ncc1CCC3", "note": "[Example 250, 4-(2-Amino-6,7-dihydro-5H-pyrido[1″,2″:1′,2′]imidazo[4′,′:6,7]cyclohepta[1,2-d]pyrimidin-11-yl)-2-methyl-3-butyn-2-ol]", "values": [
      {"measurement": "pKi", "result": "> 6.00"}
    ]},
    {"smiles": "CNc1ncc2c(n1)-c1c(nc3ccc(C#CC4(O)CCCC4)cn13)CCC2", "note": "[Example 251, 1-((2-(methylamino)-6,7-dihydro-5H-pyrido[1″,2″:1′,2′]imidazo[4′,5′:6,7]-cyclohepta[1,2-d]pyrimidin-11-yl)ethynyl)cyclopentanol]", "values": [
      {"measurement": "pKi", "result": "4.52 to 6.00"}
    ]},
    {"smiles": "CNc1ncc2c(n1)-c1c(nc3ccc(C#CC(C)(C)O)cn13)CCC2", "note": "[Example 252, 2-methyl-4-(2-(methylamino)-6,7-dihydro-5H-pyrido[1″,2″:1′,2′]imidazo[4′,′:6,7]-cyclohepta[1,2-d]pyrimidin-11-yl)-3-butyn-2-ol]", "values": [
      {"measurement": "pKi", "result": "4.52 to 6.00"}
    ]},
    {"smiles": "O=C(NCCCN1CCOCC1)c1cnccc1Nc1cccc(C#CC2(O)CCCC2)c1", "note": "[Example 253, 4-((3-((1-Hydroxycyclopentyl)ethynyl)phenyl)amino)-N-(3-(4-morpholinyl)propyl)-3-pyridinecarboxamide]", "values": [
      {"measurement": "pKi", "result": "4.52 to 6.00"}
    ]},
    {"smiles": "O=C(NCCCN1CCOCC1)c1cnccc1-n1ccc2ccc(C#CC3(O)CCCC3)cc21", "note": "[Example 254, 4-(6-((1-Hydroxycyclopentyl)ethynyl)-1H-indol-1-yl)-N-(3-(4-morpholinyl)propyl)-3-pyridinecarboxamide]", "values": [
      {"measurement": "pKi", "result": "4.52 to 6.00"}
    ]},
    {"smiles": "CNC(=O)c1cc(N2CCc3ccc(C#CC4(O)CCCC4)cc32)ccn1", "note": "[Example 255, 4-(6-((1-hydroxycyclopentyl)ethynyl)-2,3-dihydro-1H-indol-1-yl)-N-methyl-2-pyridinecarboxamide]", "values": [
      {"measurement": "pKi", "result": "4.52 to 6.00"}
    ]},
    {"smiles": "OC1(C#Cc2ccc3ccn(-c4ccnc(Nc5ccccc5)n4)c3c2)CCCC1", "note": "[Example 256, 1-((1-(2-(Phenylamino)-4-pyrimidinyl)-1H-indol-6-yl)ethynyl)cyclopentanol]", "values": [
      {"measurement": "pKi", "result": "> 6.00"}
    ]},
    {"smiles": "OC1(C#Cc2ccc3ccn(-c4cc(Nc5ccccc5)ncn4)c3c2)CCCC1", "note": "[Example 257, 1-((1-(6-(phenylamino)-4-pyrimidinyl)-1H-indol-6-yl)ethynyl)cyclopentanol]", "values": [
      {"measurement": "pKi", "result": "4.52 to 6.00"}
    ]},
    {"smiles": "COc1cc(Nc2cc(-n3ccc4ccc(C#CC5(O)CCCC5)cc43)ncn2)cc(OC)c1OC", "note": "[Example 258, 1-((1-(6-((3,4,5-tris(methyloxy)phenyl)amino)-4-pyrimidinyl)-1H-indol-6-yl)ethynyl)cyclopentanol]", "values": [
      {"measurement": "pKi", "result": "4.52 to 6.00"}
    ]},
    {"smiles": "COc1cc(Nc2nccc(-n3ccc4ccc(C#CC5(O)CCCC5)cc43)n2)cc(OC)c1OC", "note": "[Example 259, 1-((1-(2-((3,4,5-tris(methyloxy)phenyl)amino)-4-pyrimidinyl)-1H-indol-6-yl)-ethynyl)cyclopentanol]", "values": [
      {"measurement": "pKi", "result": "> 6.00"}
    ]},
    {"smiles": "COc1ccc(Nc2cc(-n3ccc4ccc(C#CC5(O)CCCC5)cc43)ncn2)cc1", "note": "[Example 260, 1-((1-(6-((4-(methyloxy)phenyl)amino)-4-pyrimidinyl)-1H-indol-6-yl)-ethynyl)-cyclopentanol]", "values": [
      {"measurement": "pKi", "result": "4.52 to 6.00"}
    ]},
    {"smiles": "COCCOc1cnc(N)nc1-c1c[nH]c2ccc(C#CC(C)(O)C(F)(F)F)cc12", "note": "(stereo not shown) [Example 261, 4-(3-(2-Amino-5-((2-(methyloxy)ethyl)oxy)-4-pyrimidinyl)-1H-indol-5-yl)-1,1,1-trifluoro-2-methyl-3-butyn-2-ol]", "values": [
      {"measurement": "pKi", "result": "4.52 to 6.00"}
    ]},
    {"smiles": "CCN(CC)CCNC(=O)c1ccc(Nc2nccc(N3CCc4ccc(C#CC5(O)CCCC5)cc43)n2)cc1", "note": "[Example 262, N-(2-(diethylamino)ethyl)-4-((4-(6-((1-hydroxycyclopentyl)ethynyl)-2,3-dihydro-1H-indol-1-yl)-2-pyrimidinyl)amino)benzamide]", "values": [
      {"measurement": "pKi", "result": "> 6.00"}
    ]},
    {"smiles": "Nc1nccc(N2CCc3ccc(C#CC4(O)CCSC4)cc32)n1", "note": "(stereo not shown) [Example 264, 3-((1-(2-amino-4-pyrimidinyl)-2,3-dihydro-tH-indol-6-yl)ethynyl)tetrahydro-3-thiopheneol]", "values": [
      {"measurement": "pKi", "result": "> 6.00"}
    ]},
    {"smiles": "CCC(C)(O)C#Cc1ccc2c(c1)N(c1ccnc(N)n1)CC2", "note": "(stereo not shown) [Example 265, 1-(1-(2-Amino-4-pyrimidinyl)-2,3-dihydro-1H-indol-6-yl)-3-methyl-1-pentyn-3-ol]", "values": [
      {"measurement": "pKi", "result": "> 6.00"}
    ]},
    {"smiles": "CC(C)C(C)(O)C#Cc1ccc2c(c1)N(c1ccnc(N)n1)CC2", "note": "(stereo not shown) [Example 266, 1-(1-(2-Amino-4-pyrimidinyl)-2,3-dihydro-1H-indol-6-yl)-3,4-dimethyl-1-pentyn-3-ol]", "values": [
      {"measurement": "pKi", "result": "4.52 to 6.00"}
    ]},
    {"smiles": "CC(O)(C#Cc1ccc2c(c1)N(c1ccnc(N)n1)CC2)c1ccccc1", "note": "(stereo not shown) [Example 267, 4-(1-(2-Amino-4-pyrimidinyl)-2,3-dihydro-1H-indol-6-yl)-2-phenyl-3-butyn-2-ol]", "values": [
      {"measurement": "pKi", "result": "> 6.00"}
    ]},
    {"smiles": "CC(C)(C)C(C)(O)C#Cc1ccc2c(c1)N(c1ccnc(N)n1)CC2", "note": "(stereo not shown) [Example 268, 1-(1-(2-Amino-4-pyrimidinyl)-2,3-dihydro-1H-indol-6-yl)-3,4,4-trimethyl-1-pentyn-3-ol]", "values": [
      {"measurement": "pKi", "result": "4.52 to 6.00"}
    ]},
    {"smiles": "CC(O)(C#Cc1ccc2c(c1)N(c1ccnc(N)n1)CC2)c1ccco1", "note": "(stereo not shown) [Example 269, 4-(1-(2-Amino-4-pyrimidinyl)-2,3-dihydro-1H-indol-6-yl)-2-(2-furanyl)-3-butyn-2-ol]", "values": [
      {"measurement": "pKi", "result": "> 6.00"}
    ]},
    {"smiles": "COc1ccc(C#CC2(O)CCCC2)cc1Nc1ccnc(N)n1", "note": "[Example 270, 1-((3-((2-amino-4-pyrimidinyl)amino)-4-(methyloxy)phenyl)ethynyl)cyclopentanol]", "values": [
      {"measurement": "pKi", "result": "> 6.00"}
    ]},
    {"smiles": "CC(C)(O)C#Cc1ccc2c(c1)N(c1ccnc(N)n1)CC2", "note": "[Example 271, 4-(1-(2-Amino-4-pyrimidinyl)-2,3-dihydro-1H-indol-6-yl)-2-methyl-3-butyn-2-ol]", "values": [
      {"measurement": "pKi", "result": "> 6.00"}
    ]}
  ]
}
